Measured values published in patent US20170064954A1, “HERBICIDAL COMPOSITIONS CONTAINING 4-AMINO-3-CHLORO-6-(4-CHLORO-2-FLUORO-3-METHOXYPHENYL)PYRIDINE-2-CARBOXYLIC ACID OR A DERIVATIVE THEREOF, A TRIAZOLOPYRIMIDINE SULFONAMIDE HERBICIDE OR A DERIVATIVE THEREOF, AND A CELL MEMBRANE DISRUPTOR HERBICIDE OR A DERIVATIVE THEREOF” (Dow AgroSciences LLC, priority 2015, published 2017).
Several values for one entry are separate records, joined by “and”; a condition that tells them apart may be missing. Identical values can stand only once.

Tests used:
Assay in all cases: Field trial, post-emergence foliar application, visually rated % weed control
Format in all cases: in vivo
[1] = test system: Conyza bonariensis (fleabane, ERIBO); conditions: Table 7, ERIBO, 21DAA, Paraquat 200 g ai/ha
Source text: (§1) Treatments consisted of the methyl ester of 4-amino-3-chloro-6-(4-chloro-2-fluoro-3-methoxyphenyl)pyridine-2-carboxylic acid (Cmpd 1, halauxifen-methyl) and diclosulam in combination as GF-3220. The form of compound of formula (I) was applied on an acid equivalent basis, and diclosulam was applied on an active ingredient basis. Glufosinate-ammonium salt was applied as various commercial formulations containing 480 grams acid equivalent per liter (g ae/L). Saflufenacil was applied as a commercial formulation containing 700 grams per kilogram (g/kg). Paraquat was applied as a commercial formulation containing 200 g/L.
(§2) Field trials were conducted under standard field conditions. Plot sizes varied from 2-4 meters (m) wide by 2-5 m long. Treatments were applied with small plot backpack sprayers, using pressurized carbon dioxide (CO2) as propellant. Pressure varied from 22-40 pounds per square inch (PSI), with spray tips typically of a Flat Fan type applying water diluent at 100-150 liters per hectare (L/ha). Boom sizes varied from 2-4 m in width. Weed sizes varied, but all treatments were applied as post-emergence treatments to weeds from 2 leaf to 2 tiller growth stages varying from 2-15 inches in height. No additional adjuvant was mixed with the treatments applied in the field.
(§3) Results in Tables 1 to 7 are field trial results for foliar applied compositions. The values reported are percent (%) control visually rated. The predicted percent (%) weed control was determined using Colby's equation. • The compositions tested, application rates employed, plant species tested, and results are given in Tables 1 to 7. • The following abbreviations are used in Tables 1 to 7: • ERISS=Conyza species (fleabane, ERISS) • ERISU=Conyza sumatrensis (Guernsey fleabane) • EPHHL=Euphorbia heterophylla L. (wild poinsettia) • IAQGR=Ipomoea grandifolia (Corda-de-viola) • ERIBO=Conyza bonariensis (fleabane) • g ae/ha=grams acid equivalent per hectare • g ai/ha=grams active ingredient per hectare • Mean % weed control=observed value of percent (%) control rated visually • Predicted mean % weed control=expected value of percent (%) control as calculated by Colby's equation • Cmpd 1=methyl 4-amino-3-chloro-6-(4-chloro-2-fluoro-3-methoxyphenyl)pyridine-2-carboxylate, halauxifen-methyl, or ARYLEX®

[2] = test system: Conyza species (fleabane, ERISS)
Source text: as §1, §2, §3

[3] = test system: Conyza sumatrensis (Guernsey fleabane, ERISU)
Source text: as §1, §2, §3

[4] = test system: Ipomoea grandifolia (Corda-de-viola, IAQGR); conditions: Table 5, IAQGR, Paraquat 300 g ai/ha
Source text: as §1, §2, §3

[5] = test system: Euphorbia heterophylla L. (wild poinsettia, EPHHL); conditions: Table 4, EPHHL
Source text: as §1, §2, §3

In the case of `C[n+]1ccc(-c2cc[n+](C)cc2)cc1` [Paraquat, 1,1′-dimethyl-4,4′-bipyridinediium], the “Mean % weed control” value [1] is reported as 28.3%, the “Mean % weed control” value ([2]; Table 3, ERISS, 17DAA, Paraquat 400 g ai/ha) is reported as 32.5% and 52.5% and the “Mean % weed control” value ([2]; Table 3, ERISS, 28DAA, Paraquat 400 g ai/ha) is reported as 52.5% and 55%. For the same molecule, the “Mean % weed control” value ([2]; Table 3, ERISS, 43DAA, Paraquat 400 g ai/ha) was 60% and 65%, the “Mean % weed control” value ([3]; Table 6, ERISU, 13DAA, Paraquat 100 g ai/ha) was 26.3% and the “Mean % weed control” value ([3]; Table 6, ERISU, 13DAA, Paraquat 200 g ai/ha) was 40%. The “Mean % weed control” value ([3]; Table 6, ERISU, 22DAA, Paraquat 100 g ai/ha) was 41.3% and 41.1%, the “Mean % weed control” value ([3]; Table 6, ERISU, 22DAA, Paraquat 200 g ai/ha) was 56.3% and the “Mean % weed control” value ([3]; Table 6, ERISU, 28DAA, Paraquat 100 g ai/ha) was 47.5%. For the same molecule, the “Mean % weed control” value ([3]; Table 6, ERISU, 28DAA, Paraquat 200 g ai/ha) was 61.3%, the “Mean % weed control” value ([4]; 14DAA) was 54.3% and the “Mean % weed control” value ([4]; 21DAA) was 45%. The “Mean % weed control” value ([4]; 30DAA) was 39.8%, the “Mean % weed control” value ([5]; 14DAA, Paraquat 300 g ai/ha) was 81.8% and the “Mean % weed control” value ([5]; 21DAA, Paraquat 100 g ai/ha) was 56%. For the same molecule, the “Mean % weed control” value ([5]; 21DAA, Paraquat 300 g ai/ha) was 82.8%, the “Mean % weed control” value ([5]; 30DAA, Paraquat 100 g ai/ha) was 48.3% and the “Mean % weed control” value ([5]; 30DAA, Paraquat 300 g ai/ha) was 81.8%.
For `CC(C)N(C)S(=O)(=O)NC(=O)c1cc(-n2c(=O)cc(C(F)(F)F)n(C)c2=O)c(F)cc1Cl` [Saflufenacil, 2-chloro-5-[3,6-dihydro-3-methyl-2,6-dioxo-4-(trifluoromethyl)-1(2H)-pyrimidinyl]-4-fluoro-N-[[methyl(1-methylethyl)amino]sulfonyl]benzamide], the “Mean % weed control” value ([2]; Table 2, ERISS, 17DAA, Saflufenacil 49 g ai/ha) was 52.5% and 66.3%, the “Mean % weed control” value ([2]; Table 2, ERISS, 28DAA, Saflufenacil 49 g ai/ha) was 66.3% and the “Mean % weed control” value ([2]; Table 2, ERISS, 43DAA, Saflufenacil 49 g ai/ha) was 77.5%.
With `CP(=O)(O)CCC(N)C(=O)O` (stereo not drawn) [Glufosinate ammonium] the “Mean % weed control” value ([3]; Table 1, ERISU, 17DAA, Glufosinate ammonium 366 g ai/ha) was 58.75% and 71.25%, the “Mean % weed control” value ([3]; Table 1, ERISU, 28DAA, Glufosinate ammonium 366 g ai/ha) was 71.25% and the “Mean % weed control” value ([3]; Table 1, ERISU, 43DAA, Glufosinate ammonium 366 g ai/ha) was 78.75%.
